In patent publication US20030228583A1, “Biomarkers of liver response” (priority 2001, published 2003):

How the values were obtained:
[1] = system: Liver Response-Associated Features (LRFs) in liver tissue; assay: Proteome analysis (2D electrophoresis, Reference Protocol) of liver tissue of drug-treated vs control animals: relative abundance of LRFs
Text: Samples from animals treated with various drugs at various timepoints and various dose levels can be collected, prepared, and analysed as described herein. […] Using the following procedure, proteins in liver tissue and serum/plasma from 5 control animals and 5 animals having liver response induced through drug treatment were separated by isoelectric focusing followed by SDS-PAGE and analyzed. Samples were taken and analyzed at three different time points designated “early”, “full manifestation” and “late”. Parts 6.1.1 to 6.1.9 (inclusive) of the procedure set forth below are hereby designated as the “Reference Protocol”.
At the time of necropsy, approximately 2 g section of the liver's median lobe was removed to a conical tube and quick-frozen in liquid nitrogen. The frozen liver section was then pulverized for 1 minute using a freezer mill as follows:
Approximately 10-20 mg pulverized liver was solubilized with 10 ul protease inhibitor and 1.5 ml lysis solution and vortexed well. The sample was allowed to remain at room temperature for 10 minutes, was vortexed again, and then pelleted using an Eppendorf 5417R Centrifuge for 10 minutes at 13000g at 15 EC. The resulting supernatant was frozen at −80° C.
The sample was heated at 95° C. for 5 mins, and then allowed to cool to 20° C. 125 μl of the following buffer was then added to the sample:
This mixture was vortexed, and centrifuged at 13000 rpm for 5 mins at 15° C., and the supernatant was analysed by isoelectric focusing. An assay for protein content was carried out on the final sample (Pierce BCA Cat #23225).
Isoelectric focusing (IEF), was performed using the Immobiline® DryStrip Kit (Pharmacia BioTech), following the procedure described in the manufacturer's instructions, see Instructions for Immobilineg DryStrip Kit, Pharmacia, #18-1038-63, Edition AB (incorporated herein by reference in its entirety). Immobilized pH Gradient (IPG) strips (18 cm, pH 3-10 non-linear strips; Pharmacia Cat. #17-1235-01) were rehydrated overnight at 20° C. in a solution of 8M urea, 2% (w/v) CHAPS, 10 mM DTT, 2% (v/v) Resolytes 3.5-10, as described in the Immobiline DryStrip Users Manual. For IEF, 50 μl of supernatant (prepared as above) was loaded onto a strip, with the cup-loading units being placed at the basic end of the strip. The loaded gels were then covered with mineral oil (Pharmacia 17-3335-01) and a voltage was immediately applied to the strips according to the following profile, using a Pharmacia EPS3500XL power supply (Cat 19-3500-01):
After the final 19 hr step, the strips were immediately removed and immersed for 10 mins at 20° C. in a first solution of the following composition: 6M urea; 2% (w/v) DTT; 2% (w/v) SDS; 30% (v/v) glycerol (Fluka 49767); 0.05M Tris/HCl, pH 6.8 (Sigma Cat T-1503). The strips were removed from the first solution and immersed for 10 mins at 20° C. in a second solution of the following composition: 6M urea; 2% (w/v) iodoacetamide (Sigma 1-6125); 2% (w/v) SDS; 30% (v/v) glycerol; 0.05M Tris/HCl, pH 6.8.
A 9-16% linear polyacrylamide gradient was cast, extending up to a point 2 cm below the level of the notch in the front plate, using the Angelique gradient casting system (Large Scale Biology). Stock solutions were as follows. Acrylamide (40% in water) was from Serva (Cat. #10677). […] The gel buffer was 0.375M Tris/HCl, pH 8.8. The polymerization catalyst was 0.05% (v/v) TEMED (BioRad 161-0801), and the initiator was 0.1% (w/v) APS (BioRad 161-0700). No SDS was included in the gel and no stacking gel was used. The cast gels were allowed to polymerize at 20° C. overnight, and then stored at 4° C. in sealed polyethylene bags with 6 ml of gel buffer, and were used within 4 weeks.
A solution of 0.5% (w/v) agarose (Fluka Cat 05075) was prepared in running buffer (0.025 M Tris, 0.198 M glycine (Fluka 50050), 1% (w/v) SDS, supplemented by a trace of bromophenol blue). The agarose suspension was heated to 70° C. with stirring, until the agarose had dissolved.

Male Sprague-Dawley rats = assay: Phenobarbital rat toxicity study (clinical observations, body weight, clinical laboratory measurements, organ weights, histopathology)
[2] = final necropsy (twelve days post dose)

In the case of `CCC1(c2ccccc2)C(=O)NC(=O)NC1=O` [phenobarbital], the “Fold Change LRF-24” value ([1]; Early, P 0.0075) is reported as 3.34 fold, the “Fold Change LRF-17” value ([1]; Early, P 0.0212) is reported as 1.61 fold and the “Fold Change LRF-26” value ([1]; Early, P 0.0216) is reported as 1.33 fold. For the same compound, the “Fold Change LRF-37” value ([1]; Early, P 0.0254) was 3.98 fold, the “Fold Change LRF-112” value ([1]; Late, P 0.0075) was 5.38 fold and the “Fold Change LRF-115” value ([1]; Late, P 0.0075) was 3.16 fold. For the same compound, the “Fold Change LRF-85” value ([1]; Middle, P 0.0122) was 1.72 fold, the “Fold Change LRF-60” value ([1]; Middle, P 0.0216) was 1.67 fold and the “Fold Change LRF-80” value ([1]; Middle, P 0.0216) was 1.40 fold. The “Fold Change LRF-90” value ([1]; Middle, P 0.0216) was 1.47 fold, the “Fold Change LRF-66” value ([1]; Middle, P 0.0345) was 1.93 fold and the “Fold Change LRF-74” value ([1]; Middle, P 0.0361) was 1.42 fold. For the same compound, the “Fold Change LRF-83” value ([1]; Middle, P 0.0367) was 1.40 fold, the Clinical observations (Male Sprague-Dawley rats; 100 mg/kg/day oral gavage, rat) was “generally well tolerated with no adverse clinical signs observed in any of the control or treated groups other than decreased activity” and the Survival (Male Sprague-Dawley rats; 100 mg/kg/day oral gavage, rat) was “survived”. For the same compound, the Gross pathology observations (Male Sprague-Dawley rats; 100 mg/kg/day oral, rat) was “no treatment-related gross findings”, the Creatinine decreased (Male Sprague-Dawley rats; day 2, 100 mg/kg/day oral, rat) was 1.7 × and the “Serum/plasma urea nitrogen decreased” value (Male Sprague-Dawley rats; day 2, 100 mg/kg/day oral, rat) was 1.8 ×. It also gave a Total protein decreased (Male Sprague-Dawley rats; day 2, 100 mg/kg/day oral, rat) of 1.1 ×, a Cholesterol increased (Male Sprague-Dawley rats; day 5, 100 mg/kg/day oral, rat) of 1.5 × and a Glucose decreased (Male Sprague-Dawley rats; day 5, 100 mg/kg/day oral, rat) of 1.6 ×. For the same compound, the “Serum/plasma urea nitrogen increased” value (Male Sprague-Dawley rats; day 12, 100 mg/kg/day oral, rat) was 1.2 ×, the “% reticulocytes” value (Male Sprague-Dawley rats; days 5 and 12) was “small but significant decreases” and the “Group mean body weights vs concurrent controls” value (Male Sprague-Dawley rats; either interim necropsy) was “No significant treatment-related changes”. The “Mean body weight vs concurrent controls” value (Male Sprague-Dawley rats; final necropsy) was “significant decrease”, the Absolute liver weights (Male Sprague-Dawley rats; [2]) was “about the same as control” and the “Relative liver weight increased” value (Male Sprague-Dawley rats; [2]) was “about 1.06 × control mean”. For the same compound, the Liver weights increased (Male Sprague-Dawley rats; five days post dose) was “about 1.5 × control mean”, the “Increased numbers of hepatocytes with apoptotic bodies or mitotic figures, incidence” value (Male Sprague-Dawley rats; same time point as centrilobular hypertrophy) was 3 of 5 and the Liver weights increased (Male Sprague-Dawley rats; two days post dose) was “about 1.1 × control mean”. The “Centrilobular hypertrophy, incidence” value (Male Sprague-Dawley rats; two days post dose (so in the source)) was 5 of 5 and the “Group means of the various hematology parameters (except % reticulocytes)” value (Male Sprague-Dawley rats; vs vehicle control animals) was “not altered”.
